Values of other authors as cited in patent publication US20040096496A1, “Sustained release pharmaceutical composition of a cephalosporin antibiotic” (Orchid Chemicals & Pharmaceuticals Limited, priority 2002, published 2004).

Conditions: background statement, species not given

For `CC=CC1=C(C(=O)O)N2C(=O)[C@@H](NC(=O)[C@H](N)c3ccc(O)cc3)[C@H]2SC1` [Cefprozil], the half-life is given as 1.17 h.
